Results reported in patent publication US9920030B2 (priority 2006, dated 2018).

What was measured:
Type in all cases: in vivo
[1] = system: Phytophthora infestans (the causal agent of tomato late blight); experiment: whole plant or invertebrate
[2] = system: Plasmopara vilicola (the causal agent of grape downy mildew); experiment: Test A: grape downy mildew, test suspension sprayed on grape seedlings after inoculation, visual disease rating
From the text: General protocol for preparing test suspensions for Test A-C: The test compounds were first dissolved in acetone in an amount equal to 3% of the final volume and then suspended at the desired concentration (in ppm) in acetone and purified water (50/50 mix by volume) containing 250 ppm of the surfactant Trem® 014 (polyhydric alcohol esters). The resulting test suspensions were then used in Tests A-C. Spraying a 200 ppm test suspension to the point of run-off on the test plants was equivalent to a rate of 500 g/ha.
Grape seedlings were inoculated with a spore suspension of Plasmopara vilicola (the causal agent of grape downy mildew) and incubated in a saturated atmosphere at 20° C. for 24 h. After a short drying period, the test suspension was sprayed to the point of run-off on the grape seedlings, which were then moved to a growth chamber at 20° C. for 5 days, after which time the grape seedling were placed back into a saturated atmosphere at 20° C. for 24 h. Upon removal, visual disease ratings were made.
Results for Tests A-C are given in Table A. In the table, a rating of 100 indicates 100% disease control and a rating of 0 indicates no disease control (relative to the controls). A dash (-) indicates no test results.

[3] = system: Phytophthora infestans (the causal agent of tomato late blight); experiment: whole plant or invertebrate; remark: listed apart in the source
[4] = compounds without asterisk (application rate not given), 100 = 100% disease control, 0 = no control relative to the controls

Compound	Percent Disease Control, Test B [1, 4]	Percent Disease Control, Test A [2, 4]	Percent Disease Control, Test C [3, 4]	also measured
CC(=O)N1C(c2ccccc2)COC1c1csc(C2CCN(C(=O)Cn3nc(C(F)(F)F)cc3C)CC2)n1 (stereo not drawn) [Compound 14]	99%	25%	99%	–
Cc1cc(C(F)(F)F)nn1CC(=O)N1CCC(c2nc(C3=NOC(c4ccccc4)C3C)cs2)CC1 (stereo not drawn) [Compound 25]	–	–	–	Percent Disease Control, Test B ([1]; * tested at 40 ppm): 100%; Percent Disease Control, Test A ([2]; * tested at 40 ppm): 100%; Percent Disease Control, Test C ([3]; * tested at 40 ppm): 99%
Cc1cc(C(F)(F)F)nn1CC(=O)N1CCC(c2nc(-c3ccc(-c4ccccc4)cc3)cs2)CC1 [Compound 26]	83%	76%	33%	–
Cc1cc(C(F)(F)F)nn1CC(=O)N1CCC(c2nc(C3=NOC(C)(c4ccccc4)CC3)cs2)CC1 (stereo not drawn) [Compound 29]	100%	99%	99%	–
Cc1cc(C(F)(F)F)nn1CC(=O)N1CCC(c2nc(-c3cc(-c4ccccc4)no3)cs2)CC1 [Compound 30]	–	–	–	Percent Disease Control, Test B ([1]; ** tested at l0 ppm): 57%; Percent Disease Control, Test A ([2]; ** tested at l0 ppm): 31%; Percent Disease Control, Test C ([3]; ** tested at l0 ppm): 50%
Cc1cc(C(F)(F)F)nn1CC(=O)N1CCC(c2nc(C3=NC(c4ccccc4)CO3)cs2)CC1 (stereo not drawn) [Compound 31]	–	–	–	Percent Disease Control, Test B ([1]; ** tested at l0 ppm): 83%; Percent Disease Control, Test A ([2]; ** tested at l0 ppm): 84%; Percent Disease Control, Test C ([3]; ** tested at l0 ppm): 60%
Cc1cc(C(F)(F)F)nn1CC(=O)N1CCC(c2nc(C3=NCCN3Cc3ccccc3)cs2)CC1 [Compound 32]	26%	0%	0%	–
Cc1cc(C(F)(F)F)nn1CC(=O)N1CCC(n2cc(-c3cccc(-c4ccccc4)c3)cn2)CC1 [Compound 33]	9%	15%	0%	–
Cc1cc(C(F)(F)F)nn1CC(=O)N1CCC(n2cc(-c3cccc(-c4ccccc4)n3)cn2)CC1 [Compound 34]	40%	0%	0%	–
Cc1cc(C(F)(F)F)nn1CC(=O)N1CCC(c2nc(C3=NOC4(CCCc5ccccc54)C3)cs2)CC1 (stereo not drawn) [Compound 37, 1-[4-[4-(3′,4′-dihydrospiro[isoxazole-5(4H), 1′,(2′H)-naphthalen]-3-yl)-2-thiazolyl]-1-piperidinyl]-2-[5-methyl-3-(trifluoromethyl)-1H-pyrazol-1-yl]ethanone]	–	–	–	Percent Disease Control, Test B ([1]; * tested at 40 ppm): 100%; Percent Disease Control, Test A ([2]; * tested at 40 ppm): 100%; Percent Disease Control, Test C ([3]; * tested at 40 ppm): 99%
Cc1cc(C(F)(F)F)nn1CC(=O)N1CCC(c2nc(C3=NOC(c4cc(Cl)cc(Cl)c4)(C(F)(F)F)C3)cs2)CC1 (stereo not drawn) [Compound 39]	67%	8%	0%	–
Cc1cc(C(F)(F)F)nn1CC(=O)N1CCC(c2nc(-c3nnc(-c4ccccc4)o3)cs2)CC1 [Compound 40]	100%	47%	99%	–
Cc1cc(C(F)(F)F)nn1CC(=O)N1CCC(c2nc(-c3ncc(-c4ccccc4)o3)cs2)CC1 [Compound 42]	100%	62%	96%	–
Cc1cc(C(F)(F)F)nn1CC(=O)N1CCC(c2nc(-c3nc4ccccc4s3)cs2)CC1 [Compound 43]	43%	0%	0%	–
